From paper PMC8966651, “PKPD Modeling of the Inoculum Effect of Acinetobacter baumannii on Polymyxin B in vivo” (Frontiers in Pharmacology, 2022)
Structures can show the parent of a compound that is named as a salt. Where two headings read alike, the source gives them in different places. Bridge positions count the residues as written; N and C are the ends. Square brackets hold non-standard residues; d marks the D form. Peptide text beside a SMILES is read from it. * marks the point of attachment. X1 = CC[C@H](C)CCCCC(=O)*; Dab = NCC[C@H](N)C(=O)O

Tests used:
A. baumannii (CS01) = experiment: In vivo PKPD model of PMB bactericidal effect and inoculum effect; parameters: species or system Acinetobacter baumannii; conditions: for mean IK-HL (initial killing half-life): mean over PMB concentrations; for kslope (kill rate constant due to PMB): model predicted
Text: A PKPD model was developed in two steps to quantify the exposure-effect relationship of PMB in infected mice. First, time courses of total and unbound PMB concentrations were modeled and then, PK parameters were fixed during development of the PD part of the PKPD model.
The structural model for the bacterial population included one compartment representing drug-susceptible growing bacteria. A logistic function was used to model the self-limiting growth observed in vivo: dB/dt= knet×(1−B/Bmax)×B (1) Where, B (CFU/thigh) is the drug-susceptible bacterial population, knet (h^−1) is the apparent (net) growth rate constant and Bmax (CFU/thigh) the maximum bacterial count reached in the tissue. The residual error was additive on a log10 scale for bacterial counts (log10 CFU/thigh).
Predicted unbound plasma concentrations were linked to the bacterial sub-model using a mathematical function to characterize PMB antimicrobial effect (kPMB) such as: dB/dt= knet×(1−B/Bmax)×B − kPMB×B (2) Where multiple functions (linear, power, basic Emax or a sigmoidal Emax function) for kPMB were tested.
Empirical mathematical functions (i.e. linear, exponential and power) describing the relationship between kPMB and inoculum size were tested as a way to include the impact of inoculum size on PMB bactericidal activity.”
Model selection was based on objective function value (OFV) and goodness of fit (GOF) plots. When two models were nested, a decrease in OFV of at least 3.84 (chi square 1df p = 0.05) was needed to select the most complex model. Visual predictive checks (VPCs) based on 1,000 simulations were drawn after stratification on the PMB dose and the starting inoculum to evaluate the predictive performance of the model and were taken into account for model selection. Data below the LOQ were taken into account during parameter estimation by applying Beal’s M3 method ([Beal, 2001]). Parameter estimation was performed using NONMEM software (ICON, Dublin, Ireland) version 7.4.2 using the LAPLACIAN algorithm. Uncertainty around population parameters was estimated using the sampling importance resampling (SIR) technique ([Dosne et al., 2016]).
To evaluate the impact of outliers on parameter estimates and model-based inferences, a sensitivity analysis was performed. Briefly, model estimation was performed with the complete dataset and with a reduced dataset excluding outliers. Parameter estimates were compared and simulations of expected bacterial counts for all tested experimental conditions (i.e. all inocula and dosing regimens) were performed with the two parameter estimate sets.
The time course of bacterial counts was adequately described by the model depicted on Figure 1. VPCs of the final model are shown on Figure 3 and GOF plots on Supplementary Figure S4. PMB bactericidal effect (kPMB) was best described by a power function: kPMB = kslope × Cuγ (5) Where kslope corresponds to the kill rate constant due to PMB (L/mg.h), Cu the unbound PMB concentration (mg/L) and γ , the power parameter for PMB effect.
The inoculum effect was incorporated in the model as a decrease of kslope with increasing theoretical starting inoculum using a linear function: kslope=kslope,med +kinoc×(starting inoculum−6) (6) Where kslope,med is the kill rate constant for a theoretical starting inoculum of 6 log10 CFU/thigh corresponding to the median of the starting inoculum tested in the present study (5, 6 or 7 log10 CFU/thigh) and kinoc is the constant describing the inoculum effect on kslope.

[1] = ultracentrifugation, ref Landersdorfer et al., 2018, cited from earlier work
Text: This discrepancy may be explained by differences in methodology. We used ultra-filtration after correction for non-specific adsorption on membranes to determine unbound fraction individually in infected mice, whereas the previous study used ultracentrifugation and pooled plasma sampled drawn from infected mi ...

[2] = PMB plasma protein binding by ultrafiltration (Centrifree) of plasma from infected mice; type: in vitro ADME; conditions: mouse plasma
Procedure: The PK of PMB was determined in neutropenic mice infected with the bacterial inoculum size of 10^6 CFU/thigh (n = 56). Mice were anesthetized by isoflurane (AbbVie, Rungis, France) inhalation (3%) for 5 min at each sampling time. Blood samples were collected by intracardiac puncture into heparinized tubes up to 24 h after PMB administration for a total of 7 time points per dose level (n = 3 animals per time point). Plasma was separated from the whole blood after centrifugation at 4,000 rpm for 10 min at 4°C and divided into two samples. The first sample was used to determine total PMB concentrations and the second one (0.15 ml) was ultrafiltered (4000 rpm for 30 min at room temperature) using Centrifree® ultrafiltration devices from Millipore (Merck KGaA) to determine unbound PMB concentrations and consequently protein binding. The non-specific binding of PMB to the membrane of the Centrifree® ultrafiltration devices ([Sader et al., 2012]) was determined by ultrafiltration of PMB solutions in phosphate buffer (pH7.2) at concentrations ranging from 0.2 to 7.5 mg/L and was used to correct ultrafiltrate concentrations. Plasma samples and ultrafiltrates were stored at −20°C until further analysis. Total and unbound PMB concentrations were determined by a liquid chromatography tandem mass spectrometry (LS-MS/MS) method (Supplemental Material).
A saturable non-specific binding (NSB) of PMB to the ultrafiltration membrane, translating to a non-linear decrease of PMB NSB when PMB concentration increased, was observed (Supplementary Figure S1) and could be described by the following equation: NSB = 0.47−0.16×ln(UF) (3) Where NSB corresponds to the non-specific binding (%) and UF to PMB concentrations in ultrafiltrates (mg/L). Equation 3 was used to correct ultrafiltrates concentrations, as follows: Unbound concentrations = UF/1−NSB (4)

SMILES: CC[C@H](C)CCCCC(=O)N[C@@H](CCN)C(=O)N[C@H](C(=O)N[C@@H](CCN)C(=O)N[C@H]1CCNC(=O)[C@H]([C@@H](C)O)NC(=O)[C@H](CCN)NC(=O)[C@H](CCN)NC(=O)[C@H](CC(C)C)NC(=O)[C@@H](Cc2ccccc2)NC(=O)[C@H](CCN)NC1=O)[C@@H](C)O [PMB, Polymyxin B sulfate] (X1-[Dab]T[Dab][Dab][Dab][dF]L[Dab][Dab]T; lactam 4-C)
- mean IK-HL higher at 10^7 CFU/thigh compared with 10^5 CFU/thigh inoculum (A. baumannii (CS01); in vivo): 48%
- mean IK-HL (initial killing half-life) (A. baumannii (CS01); in vivo, inoculum 10^5 CFU/thigh): 32.4 min
- mean IK-HL (initial killing half-life) (A. baumannii (CS01); in vivo, inoculum 10^7 CFU/thigh): 48 min
- kslope (kill rate constant due to PMB) (A. baumannii (CS01); starting inoculum 5 log10 CFU/thigh): 19800 µL/min/mg
- kslope (kill rate constant due to PMB) (A. baumannii (CS01); starting inoculum 7 log10 CFU/thigh): 13500 µL/min/mg
- decrease in the in vivo PMB bactericidal effect (A. baumannii (CS01); starting inoculum increases from 10^5 to 10^7 CFU/thigh): 32%
- change of kslope (A. baumannii (CS01); starting inoculum increasing from 5 to 7 log10 CFU/thigh): −32%
- Model derived initial killing half-life (A. baumannii (CS01); unbound PMB 0.5 mg/L, inoculum 10^5 CFU/thigh): 39 min
- Model derived initial killing half-life (A. baumannii (CS01); unbound PMB 0.5 mg/L, inoculum 10^6 CFU/thigh): 47 min
- Model derived initial killing half-life (A. baumannii (CS01); unbound PMB 0.5 mg/L, inoculum 10^7 CFU/thigh): 58 min
- Model derived initial killing half-life (A. baumannii (CS01); unbound PMB 1 mg/L, inoculum 10^5 CFU/thigh): 35 min
- Model derived initial killing half-life (A. baumannii (CS01); unbound PMB 1 mg/L, inoculum 10^6 CFU/thigh): 42 min
- Model derived initial killing half-life (A. baumannii (CS01); unbound PMB 1 mg/L, inoculum 10^7 CFU/thigh): 52 min
- Model derived initial killing half-life (A. baumannii (CS01); unbound PMB 2 mg/L, inoculum 10^5 CFU/thigh): 31 min
- Model derived initial killing half-life (A. baumannii (CS01); unbound PMB 2 mg/L, inoculum 10^6 CFU/thigh): 37 min
- Model derived initial killing half-life (A. baumannii (CS01); unbound PMB 2 mg/L, inoculum 10^7 CFU/thigh): 46 min
- Model derived initial killing half-life (A. baumannii (CS01); unbound PMB 3 mg/L, inoculum 10^5 CFU/thigh): 29 min
- Model derived initial killing half-life (A. baumannii (CS01); unbound PMB 3 mg/L, inoculum 10^6 CFU/thigh): 35 min
- Model derived initial killing half-life (A. baumannii (CS01); unbound PMB 3 mg/L, inoculum 10^7 CFU/thigh): 43 min
- Model derived initial killing half-life (A. baumannii (CS01); unbound PMB 4 mg/L, inoculum 10^5 CFU/thigh): 28 min
- Model derived initial killing half-life (A. baumannii (CS01); unbound PMB 4 mg/L, inoculum 10^6 CFU/thigh): 33 min
- Model derived initial killing half-life (A. baumannii (CS01); unbound PMB 4 mg/L, inoculum 10^7 CFU/thigh): 41 min
- plasma protein binding ([1]; mouse plasma, pooled plasma spiked with PMB): ~90%
- unbound fraction ([1]; pooled plasma from infected mice spiked with PMB): 0.086
- fraction unbound ([2]; male, Swiss RjOrl, sc, infected mice, ultrafiltration 4000 rpm 30 min room temperature, corrected for non-specific binding to membrane, LC-MS/MS, model estimate (%RSE)): 0.166
- unbound fraction ([2]; infected mice, ultrafiltration corrected for non-specific binding, model estimate): 17%
- plasma protein binding ([2]; ultrafiltration, this study): ~80%
